Values quoted from earlier work in patent publication US12357650B2, “Methods and compositions for cancer therapies that include delivery of halogenated thymidines and thymidine phosphorlylase inhibitors in combination with radiation” (Shuttle Pharmaceuticals, Inc., priority 2017, dated 2025).

Tested on: cells
Conditions: as compared to cells without the defective DNA; cited from earlier work

## O=c1[nH]c(=O)n([C@H]2C[C@H](O)[C@@H](CO)O2)cc1Br [BUdR, 5-bromo-2′-deoxyuridine]
  increase in susceptibility of cells to the lethal effects of RT: two-three fold
